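Interpolation was linear, between the two tested concentrations surrounding the appropriate level; five concentrations were tested over 48 hours in 96-well plates. GI50 is the concentration that inhibits growth by half. Definition used: TGI = concentration required for complete inhibition of growth.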
Assays:
Experiment in all cases: NCI tumour cell line growth inhibition, 48 h
786-0 renal = test system: 786-0 renal
A498 renal = test system: A498 renal
A549 NSCLC = test system: A549 NSCLC
ACHN renal = test system: ACHN renal
BT-549 breast = test system: BT-549 breast
CAKI-1 renal = test system: CAKI-1 renal
CCRF-CEM leukemia = test system: CCRF-CEM leukemia
COLO 205 colon = test system: COLO 205 colon
DU-145 prostate = test system: DU-145 prostate
EKVX NSCLC = test system: EKVX NSCLC
HCC-2998 colon = test system: HCC-2998 colon
HCT-116 colon = test system: HCT-116 colon
HCT-15 colon = test system: HCT-15 colon
HL-60(TB) leukemia = test system: HL-60(TB) leukemia
HOP-62 NSCLC = test system: HOP-62 NSCLC
HOP-92 NSCLC = test system: HOP-92 NSCLC
HS 578T breast = test system: HS 578T breast
HT29 colon = test system: HT29 colon
IGROV1 ovarian = test system: IGROV1 ovarian
K-562 leukemia = test system: K-562 leukemia
KM12 colon = test system: KM12 colon
LOX IMVI melanoma = test system: LOX IMVI melanoma
M14 melanoma = test system: M14 melanoma
MALME-3M melanoma = test system: MALME-3M melanoma
MCF7 breast = test system: MCF7 breast
MDA-MB-231 breast = test system: MDA-MB-231 breast
MDA-MB-435 = test system: MDA-MB-435
MDA-MB-468 breast = test system: MDA-MB-468 breast
MOLT-4 leukemia = test system: MOLT-4 leukemia
NCI-H226 lung = test system: NCI-H226 lung
NCI-H23 lung = test system: NCI-H23 lung
NCI-H460 lung = test system: NCI-H460 lung
NCI-H522 lung = test system: NCI-H522 lung
OVCAR-3 ovarian = test system: OVCAR-3 ovarian
OVCAR-4 ovarian = test system: OVCAR-4 ovarian
OVCAR-5 ovarian = test system: OVCAR-5 ovarian
OVCAR-8 ovarian = test system: OVCAR-8 ovarian
PC-3 prostate = test system: PC-3 prostate
RPMI-8226 leukemia = test system: RPMI-8226 leukemia
RXF 393 renal = test system: RXF 393 renal
SF-268 CNS = test system: SF-268 CNS
SF-295 CNS = test system: SF-295 CNS
SF-539 CNS = test system: SF-539 CNS
SK-MEL-2 melanoma = test system: SK-MEL-2 melanoma
SK-MEL-28 melanoma = test system: SK-MEL-28 melanoma
SK-MEL-5 melanoma = test system: SK-MEL-5 melanoma
SK-OV-3 ovarian = test system: SK-OV-3 ovarian
SN12C renal = test system: SN12C renal
SNB-19 CNS = test system: SNB-19 CNS
SNB-75 CNS = test system: SNB-75 CNS
SR leukemia = test system: SR leukemia
SW-620 colon = test system: SW-620 colon
T-47D breast = test system: T-47D breast
TK-10 renal = test system: TK-10 renal
U251 CNS = test system: U251 CNS
UACC-257 melanoma = test system: UACC-257 melanoma
UACC-62 melanoma = test system: UACC-62 melanoma
UO-31 renal = test system: UO-31 renal

## O=C(/C=C/c1ccc(Cl)cc1)c1nc2ccccc2n1Cc1ccc(F)cc1
786-0 renal
  GI50: 13.2 µM
  TGI: 28.9 µM
A498 renal
  GI50: > 100 µM
  TGI: > 100 µM
A549 NSCLC
  GI50: 22.9 µM
  TGI: > 100 µM
ACHN renal
  GI50: 17.7 µM
  TGI: 51.4 µM
BT-549 breast
  GI50: 11.8 µM
  TGI: 30.4 µM
CAKI-1 renal
  GI50: 7.89 µM
  TGI: 43 µM
CCRF-CEM leukemia
  GI50: 4.12 µM
  TGI: > 100 µM
COLO 205 colon
  GI50: 14.8 µM
  TGI: 32.9 µM
DU-145 prostate
  GI50: 16.5 µM
  TGI: 63.3 µM
EKVX NSCLC
  GI50: 17.5 µM
  TGI: 44.9 µM
HCC-2998 colon
  GI50: 14.7 µM
  TGI: 28.5 µM
HCT-116 colon
  GI50: 11.8 µM
  TGI: 25.2 µM
HCT-15 colon
  GI50: 7.86 µM
  TGI: 23.4 µM
HL-60(TB) leukemia
  GI50: 9.53 µM
  TGI: 47.1 µM
HOP-62 NSCLC
  GI50: 14.8 µM
  TGI: 36.8 µM
HOP-92 NSCLC
  GI50: 7.12 µM
  TGI: 79.7 µM
HS 578T breast
  GI50: 19.8 µM
  TGI: > 100 µM
HT29 colon
  GI50: 13.1 µM
  TGI: 31.5 µM
IGROV1 ovarian
  GI50: 14.5 µM
  TGI: 41.9 µM
K-562 leukemia
  GI50: 6.18 µM
  TGI: > 100 µM
KM12 colon
  GI50: 11.9 µM
  TGI: 45.7 µM
LOX IMVI melanoma
  GI50: 4.97 µM
  TGI: 18.1 µM
M14 melanoma
  GI50: 14.1 µM
  TGI: 32 µM
MALME-3M melanoma
  GI50: 15.2 µM
  TGI: 34.3 µM
MCF7 breast
  GI50: 3.76 µM
  TGI: 76.4 µM
MDA-MB-231 breast
  GI50: 16.4 µM
  TGI: 42 µM
MDA-MB-435
  GI50: 11.4 µM
  TGI: 29.4 µM
MDA-MB-468 breast
  GI50: 10.4 µM
  TGI: 28 µM
MOLT-4 leukemia
  GI50: 4.15 µM
  TGI: > 100 µM
NCI-H226 lung
  GI50: 20.8 µM
  TGI: 62.1 µM
NCI-H23 lung
  GI50: 14.4 µM
  TGI: 36.8 µM
NCI-H460 lung
  GI50: 11 µM
  TGI: 28.4 µM
NCI-H522 lung
  GI50: 13.7 µM
  TGI: 31.4 µM
OVCAR-3 ovarian
  GI50: 5.05 µM
  TGI: 22.2 µM
OVCAR-4 ovarian
  GI50: 23.4 µM
  TGI: > 100 µM
OVCAR-5 ovarian
  GI50: 17.5 µM
  TGI: 37.2 µM
OVCAR-8 ovarian
  GI50: 13.9 µM
  TGI: 42.5 µM
PC-3 prostate
  GI50: 14.3 µM
  TGI: 58.5 µM
RPMI-8226 leukemia
  GI50: 4.59 µM
  TGI: 53 µM
RXF 393 renal
  GI50: 7.71 µM
  TGI: 21.7 µM
SF-268 CNS
  GI50: 19.2 µM
  TGI: > 100 µM
SF-295 CNS
  GI50: 14.3 µM
  TGI: 33.9 µM
SF-539 CNS
  GI50: 14.1 µM
  TGI: 27.9 µM
SK-MEL-2 melanoma
  GI50: 14.5 µM
  TGI: 40.1 µM
SK-MEL-28 melanoma
  GI50: 14.9 µM
  TGI: 32.5 µM
SK-MEL-5 melanoma
  GI50: 15.2 µM
  TGI: 36.2 µM
SK-OV-3 ovarian
  GI50: 41.2 µM
  TGI: > 100 µM
SN12C renal
  GI50: 18.7 µM
  TGI: 70.9 µM
SNB-19 CNS
  GI50: 14.7 µM
  TGI: 33 µM
SNB-75 CNS
  GI50: 2900 nM
  TGI: > 100 µM
SR leukemia
  GI50: 5.12 µM
  TGI: > 100 µM
SW-620 colon
  GI50: 8.58 µM
  TGI: 28.6 µM
T-47D breast
  GI50: 5.89 µM
  TGI: 33.9 µM
TK-10 renal
  GI50: 20 µM
  TGI: 75.8 µM
U251 CNS
  GI50: 10.3 µM
  TGI: 25.2 µM
UACC-257 melanoma
  GI50: 19.5 µM
  TGI: 86.8 µM
UACC-62 melanoma
  GI50: 13.2 µM
  TGI: 30.5 µM
UO-31 renal
  GI50: 9.9 µM
  TGI: 22 µM

From PubChem BioAssay (NCI)
